{
  "source": "ChEMBL document CHEMBL1201862",
  "about": "“PubChem BioAssay data set” (2004)",
  "key": {"Melanocortin receptor 4": {"target": "Melanocortin receptor 4 (Homo sapiens, UniProt P32245)", "sequence (P32245 whole entry)": "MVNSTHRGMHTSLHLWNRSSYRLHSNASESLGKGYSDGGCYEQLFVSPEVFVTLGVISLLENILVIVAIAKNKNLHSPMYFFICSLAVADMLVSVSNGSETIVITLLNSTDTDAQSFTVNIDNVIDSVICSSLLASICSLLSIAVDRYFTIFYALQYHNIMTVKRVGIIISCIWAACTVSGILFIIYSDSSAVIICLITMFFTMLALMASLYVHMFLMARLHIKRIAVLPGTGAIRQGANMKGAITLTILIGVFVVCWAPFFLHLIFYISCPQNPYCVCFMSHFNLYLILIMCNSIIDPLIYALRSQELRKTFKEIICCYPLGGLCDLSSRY", "type": "functional, cell-based"}, "[1]": {"assay": "activation of miR-122 Renilla sensor silencing – cell-based, Huh7 psiCHECK-miR122, Renilla luciferase, cherry-picked, dose response (AID 651956);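 note: huh7 hepatoma cells stably carrying a psiCHECK-2 miR-122 sensor plasmid; renilla luciferase signal reporting endogenous miR-122 activity after 48 h compound exposure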", "type": "functional"}, "[2]": {"assay": "general mammalian cell viability loss – activator set, cherry-pick, cytotoxicity control for miR-122 modulator project, dose response (AID 720690)", "type": "functional, cell-based"}, "fMet-Leu-Phe receptor": {"target": "T1, fMet-Leu-Phe receptor (Homo sapiens, UniProt P21462)", "T1 sequence (P21462 whole entry)": "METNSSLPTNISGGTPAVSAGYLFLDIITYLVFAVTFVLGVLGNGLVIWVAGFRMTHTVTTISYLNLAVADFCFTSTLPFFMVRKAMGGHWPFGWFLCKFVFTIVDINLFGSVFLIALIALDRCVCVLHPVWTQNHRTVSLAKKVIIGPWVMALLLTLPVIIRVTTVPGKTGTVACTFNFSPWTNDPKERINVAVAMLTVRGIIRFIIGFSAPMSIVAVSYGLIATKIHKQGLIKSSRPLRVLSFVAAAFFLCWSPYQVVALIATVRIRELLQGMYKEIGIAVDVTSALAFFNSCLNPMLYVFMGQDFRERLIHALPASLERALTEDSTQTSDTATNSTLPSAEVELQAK", "assay": "formyl peptide receptor binders – dose response (AID 519)", "type": "functional"}, "[3]": {"assay": "blockade of melanocortin 4 receptor signaling – cell-based, plate reader, cherry pick, counter-screen for LGR2 antagonist project, dose response (AID 743444);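 note: transfected HEK 293 cells stimulated with alpha-MSH peptide; potency of inhibitors of the alpha-MSH evoked signal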", "type": "functional"}, "[4]": {"assay": "toxicity toward HepG2 liver cells – cell-based, plate reader, cherry-pick, antagonist series, cytotoxicity control, dose response (AID 743416)", "type": "functional"}, "[5]": {"assay": "blockers of bursicon-stimulated LGR2 cAMP reporter – cell-based, HEK293, CRE-luciferase reporter, cherry pick, set 2, dose response (AID 743343);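 note: transfected cells were stimulated with diluted bursicon conditioned medium after compound addition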", "type": "functional"}, "[6]": {"assay": "viability loss in HEK293 cells – cell-based, plate reader, cherry-picked samples, cytotoxicity control, dose response (AID 743446)", "type": "functional"}, "[7]": {"assay": "A549 cell cytotoxicity, dose response, cytotoxicity control, plate reader, cherry-pick, antagonist series (AID 743412)", "type": "functional, cell-based"}, "[8]": {"assay": "reduced cellular PGC1a acetyl-lysine signal – cell-based, cherry-picked samples, dose response (AID 720514);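 note: potency may reflect raised or lowered acetylation signal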", "type": "functional"}, "[9]": {"assay": "toxicity to human hepatoma HepG2 cells – cell-based, cherry-picked samples, cytotoxicity control, dose response (AID 1159577)", "type": "functional"}, "[10]": {"assay": "P. falciparum Dd2 growth inhibitors, dose response, SYBR Green, cherry-picked samples (AID 1159567)", "type": "functional, cell-based"}, "[11]": {"assay": "Dd2 malaria parasite growth inhibition potency – SYBR Green, dry powder samples, dose response (AID 1159566);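 note: potency for growth inhibition with lower SYBR green DNA signal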", "type": "functional, cell-based"}, "[12]": {"assay": "growth inhibition of yeast DHODH-expressing 3D7 parasites – SYBR Green, dry powder samples, dose response (AID 1159570);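 note: parasite growth measured after 72 hours of compound exposure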", "type": "functional, cell-based"}, "[13]": {"assay": "growth inhibition of PfATP4-mutant resistant parasites – NITD609-resistant line, SYBR Green, dry powder, dose response (AID 1159571);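 note: parasites synchronized at ring stage by sorbitol before testing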", "type": "functional, cell-based"}, "[14]": {"assay": "toxicity to human HepG2 hepatoma cells – cell-based, plate reader, dry powder samples, cytotoxicity control, dose response (AID 1159569);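 note: inhibitor potency with signal falling toward the positive control level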", "type": "functional"}},
  "note": "Activity calls are given as the source filed them.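 Throughout, for EC50: Cell-based assay with luminescence read-out, confirmatory dose-response testing for agonist activity of biased ligands at MC4R; human U2OS cells with tagged receptor and beta-arrestin; potency of agonists that increase receptor coupling to beta-arrestin.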",
  "data": [
    {"smiles": "CC(/C=C/C=C/c1ccccc1)=N/NC(=O)CNc1ccccc1C", "values": [
      {"measurement": "EC50", "setting": "Melanocortin receptor 4", "result": "> 89.3 µM (inactive)"}
    ]},
    {"smiles": "C[C@@H]1CN([C@H](C)CO)S(=O)(=O)c2ccc(C#Cc3ccccc3F)cc2O[C@@H]1CN(C)C(=O)c1ccc2c(c1)OCO2", "values": [
      {"measurement": "AC50", "setting": "[1]", "result": "4.28 µM (active)"},
      {"measurement": "AC50", "setting": "[2]", "result": "20.6 µM (active)"}
    ]},
    {"smiles": "O=C(NCc1cccnc1)C1c2ccccc2C(=O)N1C1CCCCCC1", "note": "(centres undefined)", "values": [
      {"measurement": "Ki", "setting": "fMet-Leu-Phe receptor", "result": "36.4 µM (inactive)"}
    ]},
    {"smiles": "C[C@@H]1CN([C@@H](C)CO)S(=O)(=O)c2ccc(C#Cc3ccncc3)cc2O[C@@H]1CN(C)C(=O)C1CCOCC1", "values": [
      {"measurement": "AC50", "setting": "[1]", "result": "0.466 µM (active)"}
    ]},
    {"smiles": "CN1C(=O)c2cc(NC(=O)c3ccc(Cl)cc3)ccc2OC[C@@H]2O[C@H](CC(=O)NCc3cccc(F)c3)CC[C@@H]21", "values": [
      {"measurement": "AC50", "setting": "[2]", "result": "26.6 µM (active)"}
    ]},
    {"smiles": "N#C[C@H]1[C@H](c2ccccc2C2=CCCCC2)[C@@H](CO)N1S(=O)(=O)c1ccccc1", "values": [
      {"measurement": "AC50", "setting": "[3]", "result": "2.67 µM (active)"},
      {"measurement": "AC50", "setting": "[4]", "result": "4.61 µM (active)"},
      {"measurement": "AC50", "setting": "[5]", "result": "7.76 µM (active)"},
      {"measurement": "AC50", "setting": "[6]", "result": "13.9 µM (active)"},
      {"measurement": "AC50", "setting": "[7]", "result": "7.94 µM (active)"}
    ]},
    {"smiles": "CCC(=O)N(C)C[C@@H]1Oc2ncc(C#CCc3ccccc3)cc2C(=O)N([C@H](C)CO)C[C@@H]1C", "values": [
      {"measurement": "AC50", "setting": "[8]", "result": "16.4 µM (active)"}
    ]},
    {"smiles": "Cc1ccc(-c2ccc([C@H]3[C@@H]4CN(C(=O)Nc5ccc(C(F)(F)F)cc5)C[C@H]3N4)cc2)cc1", "values": [
      {"measurement": "AC50", "setting": "[9]", "result": "13.1 µM (active)"},
      {"measurement": "AC50", "setting": "[8]", "result": "9.39 µM (active)"},
      {"measurement": "AC50", "setting": "[10]", "result": "3.4 µM (active)"}
    ]},
    {"smiles": "C(=C\\c1ccc([C@@H]2[C@@H]3CN(Cc4cccnc4)C[C@H]2N3)cc1)/c1ccccc1", "values": [
      {"measurement": "AC50", "setting": "[9]", "result": "10.8 µM (active)"},
      {"measurement": "AC50", "setting": "[10]", "result": "< 0.3 µM (active)"}
    ]},
    {"smiles": "O=C(Nc1ccccc1F)N1CCCCN2[C@@H](CO)[C@H](c3ccc(C#Cc4ccccc4)cc3)[C@@H]2C1", "values": [
      {"measurement": "AC50", "setting": "[9]", "result": "10.3 µM (active)"},
      {"measurement": "AC50", "setting": "[10]", "result": "0.392 µM (active)"}
    ]},
    {"smiles": "O=C(C1CCCC1)N1CC(=O)N2[C@H](C1)[C@@H](c1ccc(-c3cccnc3)cc1)[C@@H]2CO", "values": [
      {"measurement": "AC50", "setting": "[11]", "result": "0.746 µM (active)"},
      {"measurement": "AC50", "setting": "[10]", "result": "1.06 µM (active)"},
      {"measurement": "AC50", "setting": "[12]", "result": "2.97 µM (active)"},
      {"measurement": "AC50", "setting": "[13]", "result": "1.52 µM (active)"},
      {"measurement": "AC50", "setting": "[14]", "result": "> 100 µM (inactive)"}
    ]},
    {"smiles": "CCCN(C)C[C@@H]1Oc2cc(C#Cc3cccnc3)ccc2S(=O)(=O)N([C@H](C)CO)C[C@@H]1C", "values": [
      {"measurement": "AC50", "setting": "[11]", "result": "1.45 µM (active)"},
      {"measurement": "AC50", "setting": "[10]", "result": "2.09 µM (active)"},
      {"measurement": "AC50", "setting": "[12]", "result": "2.35 µM (active)"},
      {"measurement": "AC50", "setting": "[13]", "result": "1.03 µM (active)"},
      {"measurement": "AC50", "setting": "[14]", "result": "> 100 µM (inactive)"}
    ]}
  ]
}
